Results: ChEMBL document CHEMBL1201862, “PubChem BioAssay data set” (2004)
Active and inactive are the calls of the source.

How the values were obtained:
[1] = target: T1, Short transient receptor potential channel 4 (Mus musculus, UniProt Q9QUQ5); test: block of DAMGO-driven TRPC4 calcium entry – cell-based, HEK293 TRPC4/mu-opioid, Fluo-4 calcium, dose response (AID 434942); type: functional;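 also: potency of inhibitors blocking the TRPC4 calcium response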
T1 sequence (Q9QUQ5 whole entry): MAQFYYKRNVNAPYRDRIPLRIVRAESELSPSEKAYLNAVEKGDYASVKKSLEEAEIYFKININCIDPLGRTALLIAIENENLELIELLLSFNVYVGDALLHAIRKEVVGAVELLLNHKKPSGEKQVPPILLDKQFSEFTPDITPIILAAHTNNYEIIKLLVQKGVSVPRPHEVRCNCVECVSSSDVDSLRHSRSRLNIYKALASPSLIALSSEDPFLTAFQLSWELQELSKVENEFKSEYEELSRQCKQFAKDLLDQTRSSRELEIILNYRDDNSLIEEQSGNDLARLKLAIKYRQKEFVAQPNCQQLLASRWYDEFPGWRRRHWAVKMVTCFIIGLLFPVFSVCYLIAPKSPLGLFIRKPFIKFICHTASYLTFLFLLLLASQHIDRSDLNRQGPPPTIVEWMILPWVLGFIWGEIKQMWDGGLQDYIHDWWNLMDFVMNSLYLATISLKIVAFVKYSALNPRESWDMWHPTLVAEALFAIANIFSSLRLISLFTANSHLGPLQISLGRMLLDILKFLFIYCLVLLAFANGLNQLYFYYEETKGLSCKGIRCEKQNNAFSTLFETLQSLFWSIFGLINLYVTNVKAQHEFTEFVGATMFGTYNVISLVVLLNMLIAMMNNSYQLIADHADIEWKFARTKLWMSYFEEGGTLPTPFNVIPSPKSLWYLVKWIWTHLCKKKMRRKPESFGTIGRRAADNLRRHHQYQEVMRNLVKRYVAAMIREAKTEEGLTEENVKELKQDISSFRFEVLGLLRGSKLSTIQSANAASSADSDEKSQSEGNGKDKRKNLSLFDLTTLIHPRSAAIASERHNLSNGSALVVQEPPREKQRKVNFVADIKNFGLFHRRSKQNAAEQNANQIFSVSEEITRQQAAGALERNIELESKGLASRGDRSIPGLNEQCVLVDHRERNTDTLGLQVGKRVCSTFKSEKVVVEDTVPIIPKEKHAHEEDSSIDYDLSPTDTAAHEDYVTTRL

[2] = Trypanosoma cruzi growth suppression in host cells – NIH3T3 host cells, beta-gal luminescence, confirmation (AID 2044); type: functional, cell-based;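 also: intracellular parasites grown in NIH/3T3 mouse fibroblasts as host cells; luminescent beta-galactosidase reporter signal from transgenic T. cruzi replicating inside host cells; inhibitors lower the luminescence signal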
[3] = NIH3T3 cell viability loss – ATP luminescence, mouse fibroblasts, counter-screen, dose response (AID 2010); type: functional, cell-based;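 also: cells exposed to compound for about 90 hours before reading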
[4] = target: Aryl hydrocarbon receptor (Homo sapiens, UniProt P35869); test: Luminescence-based cell-based high throughput dose response assay for activators of the Aryl Hydrocarbon Receptor (AHR). [Related pubchem assays: 2796 (Primary screen (AHR activators in singlicate)), 2845 (Confirmation screen (AHR activators in triplicate)), 434939 (Counterscreen (PXR activators in triplicate)), 2804 (Summary (AHR activators))]; type: ADME
Aryl hydrocarbon receptor, sequence (P35869 whole entry): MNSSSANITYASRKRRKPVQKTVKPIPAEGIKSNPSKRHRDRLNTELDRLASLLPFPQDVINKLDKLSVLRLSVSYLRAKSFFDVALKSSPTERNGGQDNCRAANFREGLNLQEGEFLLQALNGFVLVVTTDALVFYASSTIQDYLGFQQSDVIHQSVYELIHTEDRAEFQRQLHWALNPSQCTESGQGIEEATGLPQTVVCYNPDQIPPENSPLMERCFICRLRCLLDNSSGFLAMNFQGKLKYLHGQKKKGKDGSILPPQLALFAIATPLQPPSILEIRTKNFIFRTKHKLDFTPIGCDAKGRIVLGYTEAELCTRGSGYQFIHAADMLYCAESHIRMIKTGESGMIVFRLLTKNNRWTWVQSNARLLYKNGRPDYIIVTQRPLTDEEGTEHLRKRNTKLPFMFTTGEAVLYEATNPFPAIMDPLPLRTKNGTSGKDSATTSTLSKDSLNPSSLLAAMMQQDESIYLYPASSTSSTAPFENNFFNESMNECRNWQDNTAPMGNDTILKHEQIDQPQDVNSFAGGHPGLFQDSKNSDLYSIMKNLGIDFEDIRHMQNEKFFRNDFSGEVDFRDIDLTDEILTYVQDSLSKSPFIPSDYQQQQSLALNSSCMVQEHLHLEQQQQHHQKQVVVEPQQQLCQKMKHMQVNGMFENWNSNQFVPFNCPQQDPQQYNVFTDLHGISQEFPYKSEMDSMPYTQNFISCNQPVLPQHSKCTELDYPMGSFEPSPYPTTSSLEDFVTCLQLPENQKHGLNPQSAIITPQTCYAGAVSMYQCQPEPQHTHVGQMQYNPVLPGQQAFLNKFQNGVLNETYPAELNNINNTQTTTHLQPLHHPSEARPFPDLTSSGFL

[5] = target: Heat shock protein HSP 90-alpha (Homo sapiens, UniProt P07900); test: Luminescence-based dose response biochemical high throughput screening assay for inhibitors of the Heat Shock Protein 90 (HSP90). [Related pubchem assays: 1831 (Summary AID.), 1846 (Confirmation screen.), 1789 (Primary screen.)]
Danio rerio = test: In Vivo Angiogenesis Dose-Response Confirmation. [Related pubchem assays: 732 (Assay preceding this confirmatory assay.)]; type: functional, organism-based
[6] = target: Peroxisome proliferator-activated receptor gamma/Nuclear receptor coactivator 1 (Homo sapiens, UniProt P37231); type: functional;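 also: agonist potency as compounds enhance coactivator SRC-1 recruitment to PPARgamma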
Peroxisome proliferator-activated receptor gamma/Nuclear receptor coactivator 1, sequence (P37231 whole entry): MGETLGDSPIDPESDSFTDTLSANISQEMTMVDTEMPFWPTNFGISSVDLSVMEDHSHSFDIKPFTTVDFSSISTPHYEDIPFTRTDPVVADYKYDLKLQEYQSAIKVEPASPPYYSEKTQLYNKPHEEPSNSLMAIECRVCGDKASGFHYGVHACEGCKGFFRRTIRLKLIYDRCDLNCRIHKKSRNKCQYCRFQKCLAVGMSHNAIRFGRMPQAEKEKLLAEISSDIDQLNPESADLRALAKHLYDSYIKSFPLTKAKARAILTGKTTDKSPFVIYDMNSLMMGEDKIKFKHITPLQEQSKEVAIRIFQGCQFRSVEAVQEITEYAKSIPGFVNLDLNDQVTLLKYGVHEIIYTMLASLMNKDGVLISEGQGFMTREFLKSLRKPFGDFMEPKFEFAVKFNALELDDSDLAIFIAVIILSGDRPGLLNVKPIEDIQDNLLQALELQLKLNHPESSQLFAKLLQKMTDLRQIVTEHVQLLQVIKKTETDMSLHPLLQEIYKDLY
Peroxisome proliferator-activated receptor gamma/Nuclear receptor coactivator 1, sequence (Q15788 whole entry, further chain): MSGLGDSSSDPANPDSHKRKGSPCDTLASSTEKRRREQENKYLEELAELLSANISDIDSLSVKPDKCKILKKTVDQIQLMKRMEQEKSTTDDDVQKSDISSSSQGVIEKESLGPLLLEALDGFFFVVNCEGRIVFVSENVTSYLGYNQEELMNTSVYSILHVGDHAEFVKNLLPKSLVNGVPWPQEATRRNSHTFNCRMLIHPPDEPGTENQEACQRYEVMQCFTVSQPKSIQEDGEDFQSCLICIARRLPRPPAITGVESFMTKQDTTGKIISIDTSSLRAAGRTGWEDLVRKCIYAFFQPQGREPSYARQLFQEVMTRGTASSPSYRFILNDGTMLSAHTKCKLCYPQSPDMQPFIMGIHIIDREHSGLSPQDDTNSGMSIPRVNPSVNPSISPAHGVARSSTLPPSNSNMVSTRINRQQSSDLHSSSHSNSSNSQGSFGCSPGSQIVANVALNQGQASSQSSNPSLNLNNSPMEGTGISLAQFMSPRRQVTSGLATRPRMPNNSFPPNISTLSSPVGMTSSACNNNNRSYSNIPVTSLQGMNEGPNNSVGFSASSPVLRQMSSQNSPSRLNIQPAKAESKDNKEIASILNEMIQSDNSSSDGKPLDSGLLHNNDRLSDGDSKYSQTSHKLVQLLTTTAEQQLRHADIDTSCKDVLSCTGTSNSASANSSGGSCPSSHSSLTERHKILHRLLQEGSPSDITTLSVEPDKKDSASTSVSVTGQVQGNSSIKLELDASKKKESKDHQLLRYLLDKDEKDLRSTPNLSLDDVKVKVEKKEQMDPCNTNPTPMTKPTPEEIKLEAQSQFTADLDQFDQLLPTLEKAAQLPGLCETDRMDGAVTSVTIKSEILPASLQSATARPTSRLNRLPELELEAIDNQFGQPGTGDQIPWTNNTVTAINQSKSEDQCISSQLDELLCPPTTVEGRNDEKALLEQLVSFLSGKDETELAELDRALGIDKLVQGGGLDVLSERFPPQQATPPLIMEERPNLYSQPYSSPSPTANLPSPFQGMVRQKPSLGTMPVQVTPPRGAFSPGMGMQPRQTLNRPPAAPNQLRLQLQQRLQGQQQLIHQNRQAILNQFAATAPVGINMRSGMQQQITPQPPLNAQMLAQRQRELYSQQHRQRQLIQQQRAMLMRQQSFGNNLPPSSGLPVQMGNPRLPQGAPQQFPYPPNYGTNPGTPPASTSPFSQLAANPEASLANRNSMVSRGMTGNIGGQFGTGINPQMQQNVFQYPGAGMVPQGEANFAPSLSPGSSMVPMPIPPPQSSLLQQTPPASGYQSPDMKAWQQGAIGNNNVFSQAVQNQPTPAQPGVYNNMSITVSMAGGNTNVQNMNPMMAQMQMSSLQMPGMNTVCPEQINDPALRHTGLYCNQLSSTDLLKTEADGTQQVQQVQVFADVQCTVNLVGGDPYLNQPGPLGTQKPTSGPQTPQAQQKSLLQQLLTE

[7] = target: T2, Calpain-2 catalytic subunit (Sus scrofa, UniProt P43367); test: m-calpain protease blockers, concentration series – biochemical, fluorogenic peptide substrate, dose response (AID 1420); type: functional
T2 sequence (P43367 whole entry): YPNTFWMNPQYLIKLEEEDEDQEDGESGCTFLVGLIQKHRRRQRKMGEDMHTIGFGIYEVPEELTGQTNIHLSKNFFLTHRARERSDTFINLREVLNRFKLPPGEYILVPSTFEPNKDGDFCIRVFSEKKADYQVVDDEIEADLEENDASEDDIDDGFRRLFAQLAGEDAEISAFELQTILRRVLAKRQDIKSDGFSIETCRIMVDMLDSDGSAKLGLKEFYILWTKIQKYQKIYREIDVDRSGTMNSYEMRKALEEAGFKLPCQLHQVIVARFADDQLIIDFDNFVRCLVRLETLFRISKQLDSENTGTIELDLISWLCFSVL

[8] = target: Peroxisome proliferator-activated receptor gamma/Nuclear receptor coactivator 3 (Homo sapiens, UniProt P37231); type: functional;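 also: agonist potency for raising coactivator recruitment to the receptor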
Peroxisome proliferator-activated receptor gamma/Nuclear receptor coactivator 3, sequence (P37231 whole entry): as the sequence (P37231 whole entry) above
Peroxisome proliferator-activated receptor gamma/Nuclear receptor coactivator 3, sequence (Q9Y6Q9 whole entry, further chain): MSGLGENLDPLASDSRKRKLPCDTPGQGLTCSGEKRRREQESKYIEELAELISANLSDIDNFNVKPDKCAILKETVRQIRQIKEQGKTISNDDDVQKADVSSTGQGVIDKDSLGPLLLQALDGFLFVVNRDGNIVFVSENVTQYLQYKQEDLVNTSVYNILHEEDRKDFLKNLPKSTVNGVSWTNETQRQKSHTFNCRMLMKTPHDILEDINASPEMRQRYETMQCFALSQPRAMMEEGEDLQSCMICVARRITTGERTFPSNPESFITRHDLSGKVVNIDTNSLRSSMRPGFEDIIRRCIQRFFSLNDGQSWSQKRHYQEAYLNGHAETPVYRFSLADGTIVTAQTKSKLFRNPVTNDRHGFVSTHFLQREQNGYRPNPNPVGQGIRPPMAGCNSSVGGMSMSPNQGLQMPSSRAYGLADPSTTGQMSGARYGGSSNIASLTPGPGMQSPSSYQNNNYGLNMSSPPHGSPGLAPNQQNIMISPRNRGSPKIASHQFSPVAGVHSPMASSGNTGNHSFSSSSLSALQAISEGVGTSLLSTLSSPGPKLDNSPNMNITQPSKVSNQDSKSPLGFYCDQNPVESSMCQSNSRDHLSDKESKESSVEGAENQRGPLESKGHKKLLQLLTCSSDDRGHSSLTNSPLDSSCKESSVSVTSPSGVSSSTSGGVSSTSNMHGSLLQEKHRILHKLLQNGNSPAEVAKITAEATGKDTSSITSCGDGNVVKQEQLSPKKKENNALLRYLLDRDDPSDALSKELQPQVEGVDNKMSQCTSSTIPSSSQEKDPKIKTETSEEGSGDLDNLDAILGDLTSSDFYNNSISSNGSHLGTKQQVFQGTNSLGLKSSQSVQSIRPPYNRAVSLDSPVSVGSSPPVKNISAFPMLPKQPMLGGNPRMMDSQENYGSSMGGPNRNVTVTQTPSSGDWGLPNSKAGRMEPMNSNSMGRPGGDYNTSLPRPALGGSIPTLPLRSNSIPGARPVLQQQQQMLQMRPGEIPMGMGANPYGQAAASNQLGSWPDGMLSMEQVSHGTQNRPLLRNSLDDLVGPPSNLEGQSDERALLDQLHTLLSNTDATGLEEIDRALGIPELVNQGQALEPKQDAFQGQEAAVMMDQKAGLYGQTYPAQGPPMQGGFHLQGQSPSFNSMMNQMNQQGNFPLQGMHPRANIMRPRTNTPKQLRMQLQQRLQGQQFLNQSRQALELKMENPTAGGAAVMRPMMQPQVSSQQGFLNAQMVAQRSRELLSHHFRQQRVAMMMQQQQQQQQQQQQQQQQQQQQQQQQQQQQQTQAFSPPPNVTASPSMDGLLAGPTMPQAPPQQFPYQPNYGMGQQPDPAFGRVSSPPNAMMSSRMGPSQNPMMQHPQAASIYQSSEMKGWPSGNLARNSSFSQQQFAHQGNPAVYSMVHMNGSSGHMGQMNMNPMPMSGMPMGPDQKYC

[9] = target: Peroxisome proliferator-activated receptor gamma/Nuclear receptor coactivator 2 (Homo sapiens, UniProt P37231); type: functional;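 also: agonist potency for raising coactivator recruitment to the receptor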
[10] = cytotoxicity toward HCT116 cells – cell-based, CellTiter-Glo luminescence, IC50, dose response (AID 1117332); type: functional; conditions: HCT-116
[11] = Reduced DLD-1 viability, concentration-response, CellTiter-Glo luminescence (AID 1117352); type: functional
[12] = HCT116 cell viability decrease, GSK3B pretreatment – CellTiter-Glo, IC50, dose response (AID 1117339); type: functional; conditions: HCT-116
[13] = CellTiter-Glo luminescence survival assay, SW480 colon tumor line, concentration-response curve, half-maximal inhibitory concentration (AID 1117338); type: functional
[14] = RKO cell viability reduction, dose response, CellTiter-Glo luminescence (AID 1117322); type: functional
[15] = SNU-C1 cell viability reduction, dose response, CellTiter-Glo luminescence (AID 1117323); type: functional, cell-based
[16] = cytotoxicity toward HT-29 cells – cell-based, CellTiter-Glo luminescence, IC50, dose response (AID 1117330); type: functional
[17] = cytotoxicity toward Colo320 cells – cell-based, CellTiter-Glo luminescence, IC50, dose response (AID 1117334); type: functional; conditions: COLO 320
[18] = HPDE-C7 pancreatic duct cell viability loss – fluorescence, HTS (AID 430); type: functional, cell-based; conditions: Homo sapiens
[19] = viability loss of HPDE-C7K cells – cell-based, fluorescence, HTS, primary screen (AID 431); type: functional; conditions: Homo sapiens
[20] = Luminescence Cell-Based Dose Retest to Confirm Inhibitors of Cancer Stem Cells. [Related pubchem assays (depositor defined):AID2717, AID2721]; type: functional; conditions: Homo sapiens
Cytochrome P450 3A4 = Cytochrome P450 3A4 (Homo sapiens, UniProt P08684);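 also: CYP3A4 tested as one member of a cytochrome P450 panel screen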
[21] = Luminescence-based cell-based high throughput dose response assay to identify activators of the DAF-12 from the parasite S. stercoralis (ssDAF-12).; type: functional

Which EC50 [1] does the source give for `COc1cc(CN(C)CC2CCCN(CCc3ccccc3F)C2)cc(Cl)c1OC` (stereo not given) here?
The EC50 was 3.35 µM (active).

What about the EC50 [2] of the same molecule?
Its EC50 is < 100 nM (active).

And the EC50 [3]?
Its EC50 is 11.1 µM (active).

What about the EC50 (cells) of the same molecule?
The EC50 was 263 nM (active).

Which EC50 [4] does the source give for `Cc1ccc(C)c2sc(NC(=O)C3CC3)nc12` here?
Its EC50 is 4.22 µM (active).

With `COC(=O)c1ccc(N/C=C/C(=O)c2ccccc2)cc1` as the molecule, how does the IC50 [5] read?
The IC50 was 3.73 µM (active).

With `O=C(CN1CCOCC1)Nc1nc2ccc([N+](=O)[O-])cc2s1` as the molecule, how does the EC50 [4] read?
The EC50 was 2.61 µM (active).

Which IC50 (Danio rerio) does the source give for `Cc1cccc2c1NC(=O)/C2=C1\Nc2ccccc2\C1=N/O` here?
The IC50 was 0.68 µM (active).

For `CCc1cc2c(=O)c(-c3nc(C)cs3)coc2cc1OC(C)C(=O)NCCO` (stereo not given), which EC50 [6] is on record?
The EC50 was > 79.4 µM (not active).

What about the IC50 [7] of the same molecule?
The IC50 was 3.22 µM (not active).

What about the EC50 [8] of the same molecule?
Its EC50 is > 79.4 µM (not active).

And the EC50 [9]?
Its EC50 is > 79.4 µM (not active).

Which results are given for `COc1ccc(CN2CCN(C(c3ccc(F)cc3)c3ccc(F)cc3)CC2)c(OC)c1OC`?
IC50 [10]: 1.7 µM (active); IC50 [11]: 3.13 µM (active); IC50 [12]: 2.77 µM (active); IC50 [13]: 3.32 µM (active); IC50 [14]: 3.7 µM (active); IC50 [15]: 443 nM (active); IC50 [16]: 2.93 µM (active); IC50 [17]: 2.82 µM (active)

With `Cc1[nH]n(-c2ccccc2)c(=O)c1N=Nc1ccc(C(N)=O)cc1` as the molecule, how does the IC50 [5] read?
Its IC50 is 20.9 µM (not active).

For `CCN1C(=O)CS/C1=N/C1C2CC3CC(C2)CC1C3` (stereo not given), which EC50 [18] is on record?
The EC50 was > 20 µM (not active).

And the EC50 [19]?
The EC50 was 11.4 µM (active).

What does the source list for `CCOC(=O)c1sc2nccc(N(C)C)c2c1/N=C/N(C)C`?
EC50 [6]: > 79.4 µM (not active); EC50 [8]: > 79.4 µM (not active); EC50 [9]: > 79.4 µM (not active)

Which results are given for `O=c1c2ccccc2nc2n1CCc1c-2[nH]c2ccccc12` [RUTAECARPINE]?
AC50 [20]: 25.1 µM (active); IC50 (Danio rerio): 25.5 µM (not active); AC50 (Cytochrome P450 3A4): 3.98 µM (inconclusive); IC50 [21]: > 67.6 µM (inactive)
